Source: patent US20120157401A1, “METHODS FOR TREATING NEUROFIBROMATOSIS” (PTC Therapeutics, Inc., priority 2009, published 2012)
Read-outs that look alike come from different tables or passages of the source.

Test system: hypoxia-inducible endogenous VEGF expression
Assay: Hypoxia-inducible endogenous VEGF expression ELISA in HeLa cells, dose-response EC50 (Table 3)
Assay type: cell-based, human
Procedure: The ability of the Compounds to modulate hypoxia-inducible endogenous VEGF expression may be analyzed as follows. VEGF protein levels may be monitored by an ELISA assay (R&D Systems). Briefly, HeLa cells may be cultured for 24-48 hours under hypoxic conditions (1% O2, 5% CO2, balanced with nitrogen) in the presence or absence of a Compound. The conditioned media may then be assayed by ELISA, and the concentration of VEGF calculated from the standard ELISA curve of each assay.
A dose-response analysis may be performed using the ELISA assay and conditions described above. The conditions for the dose-response ELISA are analogous to those described above. A series of, e.g., seven different concentrations may be analyzed. In parallel, a dose-response cytotoxicity assay may be performed using Cell Titer Glo (Promega) under the same conditions as the ELISA to ensure that the inhibition of VEGF expression was not due to the cytotoxicity.

[1] = HeLa cells, hypoxic conditions (1% O2), 24-48 hours, VEGF in conditioned media, read-out: ELISA EC50
[2] = Homo sapiens, HeLa cells, hypoxic conditions (1% O2), 24-48 hours, VEGF in conditioned media, read-out: ELISA EC50
[3] = Homo sapiens, HeLa, read-out: ELISA EC50 μM
[4] = Homo sapiens, HeLa cells, hypoxic conditions (1% O2), VEGF ELISA of conditioned media, read-out: ELISA EC50

Structure (SMILES): CC(C)c1ccc(C2c3[nH]c4ccc(Br)cc4c3CCN2C(=O)Oc2ccc(Cl)cc2)cc1 (stereo not shown) [Compound 572]
- EC50 [1]: < 0.008 µM

Structure (SMILES): O=C(Oc1ccc(F)cc1)N1CCc2c([nH]c3ccc(Cl)cc23)C1c1ccc(OCC(O)Cn2ccnn2)cc1 (stereo not shown) [Compound 1066]
- EC50 [1]: < 0.008 µM

Structure (SMILES): COC(=O)c1ccc(C2c3[nH]c4ccc(Br)cc4c3CCN2C(=O)Oc2ccc(F)cc2)cc1 (stereo not shown) [Compound 592]
- EC50 [2]: < 0.008 µM

Structure (SMILES): O=C(Oc1ccc(F)cc1)N1CCc2c([nH]c3ccc(Cl)cc23)C1c1ccc(OCCCCCCNCCCn2ccnc2)cc1 (stereo not shown) [Compound 779]
- EC50 [3]: 0.04 to 0.2 µM

Structure (SMILES): C=CCOc1ccc(C2c3[nH]c4ccc(Cl)cc4c3CCN2C(=O)Oc2ccc(Cl)cc2)cc1 (stereo not shown) [Compound 400]
- EC50 [1]: < 0.008 µM

Structure (SMILES): O=C(Oc1ccc(Cl)cc1)N1CCc2c([nH]c3ccc(Cl)cc23)[C@@H]1c1ccc(OC2CCN(C[C@H](O)CO)CC2)cc1 [Compound 1704]
- EC50 [3]: 0.008 to 0.04 µM

Structure (SMILES): O=C(Oc1ccc(F)cc1)N1CCc2c([nH]c3ccc(Cl)cc23)C1c1cccc(OCCCn2ccnc2)c1 (stereo not shown) [Compound 1123]
- EC50 [2]: 0.04 to 0.2 µM

Structure (SMILES): O=C(Oc1ccc(Cl)cc1)N1CCc2c([nH]c3ccc(Cl)cc23)[C@@H]1c1ccc(OCCc2cn(C3OC(CO)C(O)C(O)C3O)nn2)cc1 (stereo partly shown) [Compound 1676]
- EC50 [4]: > 1 µM

Structure (SMILES): O=C(Oc1ccc(F)cc1)N1CCc2c([nH]c3ccc(Cl)cc23)C1c1ccc(OCCCCCCn2ccnc2)cc1 (stereo not shown) [Compound 780]
- EC50 [2]: < 0.008 µM

Structure (SMILES): O=C(Oc1ccc(F)cc1)N1CCc2c([nH]c3ccc(Cl)cc23)C1c1cccc(OCCCN2CCSCC2)c1 (stereo not shown) [Compound 1117]
- EC50 [3]: 0.008 to 0.04 µM

Structure (SMILES): COC(=O)NCC(O)CCOc1ccc([C@H]2c3[nH]c4ccc(Cl)cc4c3CCN2C(=O)Oc2ccc(C)cc2)cc1 (stereo partly shown) [Compound 1642]
- EC50 [4]: < 0.008 µM

Structure (SMILES): O=C(Oc1ccc(Cl)cc1)N1CCc2c([nH]c3ccc(Cl)cc23)C1c1ccc(OCCCNCCO)cc1 (stereo not shown) [Compound 1183]
- EC50 [3]: < 0.008 µM

Structure (SMILES): O=C(Oc1ccc(Cl)cc1)N1CCc2c([nH]c3ccc(Cl)cc23)[C@@H]1c1ccc(OC2COC2)cc1 [Compound 1701]
- EC50 [4]: < 0.008 µM

Structure (SMILES): O=C(Oc1ccc(F)cc1)N1CCc2c([nH]c3ccc(Br)cc23)C1c1ccc(C(F)(F)F)cc1 (stereo not shown) [Compound 426]
- EC50 [1]: < 0.008 µM

Structure (SMILES): O=C(NCC(O)CCOc1ccc([C@H]2c3[nH]c4ccc(Cl)cc4c3CCN2C(=O)Oc2ccc(Cl)cc2)cc1)c1ccccn1 (stereo partly shown) [Compound 1629]
- EC50 [4]: < 0.008 µM

Structure (SMILES): O=C(Oc1ccccc1Cl)N1CCc2c([nH]c3ccc(Cl)cc23)C1c1ccc(OCCCn2ccnc2)cc1 (stereo not shown) [Compound 934]
- EC50 [2]: < 0.008 µM

Structure (SMILES): Cc1ccc(OC(=O)N2CCc3c([nH]c4ccc(Cl)cc34)[C@@H]2c2ccc(OCCC(O)CN3CCOCC3)cc2)cc1 (stereo partly shown) [Compound 1302]
- EC50 [3]: 0.04 to 0.2 µM

Structure (SMILES): COc1ccc(OC(=O)N2CCc3c([nH]c4ccc(Cl)cc34)C2c2ccc(OCC(N)=O)cc2)cc1 (stereo not shown) [Compound 1216]
- EC50 [2]: 0.008 to 0.04 µM

Structure (SMILES): COc1ccc(C2c3[nH]c4ccc(Cl)cc4c3CCN2C(=O)Oc2ccc(F)cc2)cc1 (stereo not shown) [Compound 401]
- EC50 [2]: < 0.008 µM

Structure (SMILES): O=C(Oc1ccc(Cl)cc1)N1CCc2c([nH]c3ccc(Cl)cc23)C1c1ccc(OCCCn2nccn2)cc1 (stereo not shown) [Compound 1016]
- EC50 [2]: > 1 µM

Structure (SMILES): CN1CCC(Oc2ccc([C@H]3c4[nH]c5ccc(Cl)cc5c4CCN3C(=O)Oc3ccc(Cl)cc3)cc2)CC1 [Compound 1694]
- EC50 [3]: < 0.008 µM

Structure (SMILES): O=C(Oc1ccccc1)N1CCc2c([nH]c3ccc(Cl)cc23)C1c1ccc(OCCCn2ccnc2)cc1 (stereo not shown) [Compound 911]
- EC50 [2]: < 0.008 µM

Structure (SMILES): O=C(Oc1ccc(F)cc1)N1CCc2c([nH]c3ccc(Cl)cc23)C1c1ccc(OCCCCn2ccnc2)cc1 (stereo not shown) [Compound 742]
- EC50 [2]: < 0.008 µM

Structure (SMILES): O=C(Oc1ccc(Cl)cc1)N1CCc2c([nH]c3ccc(Cl)cc23)[C@@H]1c1ccc(OCCC(O)Cn2ccnn2)cc1 (stereo partly shown) [Compound 1281]
- EC50 [2]: < 0.008 µM

Structure (SMILES): O=C(Oc1ccc(Cl)cc1)N1CCc2c([nH]c3ccc(Cl)cc23)C1c1ccc(OCCCCN2CCOCC2)cc1 (stereo not shown) [Compound 702]
- EC50 [3]: 0.008 to 0.04 µM

Structure (SMILES): Cc1ccc(C2c3[nH]c4ccc(Br)cc4c3CCN2C(=O)Oc2ccc(F)cc2)cc1 (stereo not shown) [Compound 398]
- EC50 [2]: < 0.008 µM

Structure (SMILES): CCN1CCN(C(=O)COc2ccc(C3c4[nH]c5ccc(Cl)cc5c4CCN3C(=O)Oc3ccc(OC)cc3)cc2)CC1 (stereo not shown) [Compound 1028]
- EC50 [3]: 0.04 to 0.2 µM

Structure (SMILES): O=C(Oc1ccc(Cl)cc1)N1CCc2c([nH]c3ccc(Cl)cc23)C1c1ccc(OCC(O)CN2CCSCC2)cc1 (stereo not shown) [Compound 923]
- EC50 [3]: < 0.008 µM

Structure (SMILES): O=C(Oc1ccccc1Cl)N1CCc2c([nH]c3ccc(Cl)cc23)C1c1ccc(OCC(O)CO)cc1 (stereo not shown) [Compound 628]
- EC50 [2]: 0.04 to 0.2 µM

Structure (SMILES): COc1ccc(OC(=O)N2CCc3c([nH]c4ccc(Cl)cc34)C2c2ccc(OCCCO)cc2)cc1 (stereo not shown) [Compound 1058]
- EC50 [2]: < 0.008 µM

Structure (SMILES): Cc1ccc(OC(=O)N2CCc3c([nH]c4ccc(Cl)cc34)[C@@H]2c2ccc(OCCC(O)CNS(=O)(=O)C3CC3)cc2)cc1 (stereo partly shown) [Compound 1647]
- EC50 [4]: < 0.008 µM
